Values of other authors, collected in patent US7022724B2, “Cognition enhancing derivatives of isoxazole triazoloindane GABA-A α5 receptor subunit ligands” (Merck Sharp & Dohme Ltd., priority 2001, dated 2006).

Assays:
[1] = reported by McNamara and Skelton, Psychobiology 21:101–108
[2] = background statement

COC(=O)c1cc2c(cn1)[nH]c1ccccc12 [β-CCM]
spatial learning in the Morris watermaze [1]: enhanced spatial learning
proconvulsant effect [2]: proconvulsant
